Reference: ChEMBL document CHEMBL5055636, “Design, Optimization, and Structural Characterization of an Apoptosis-Inducing Factor Peptide Targeting Human Cyclophilin A to Inhibit Apoptosis Inducing Factor-Mediated Cell Death” (J Med Chem, 2021)
Activity calls are given as the source filed them. The rule behind the calls is not given here. Positions of bridges follow the written chain, without caps; N, C: chain ends. Residues, ends and D or L forms follow the SMILES beside them.

Key:
[1] = Stability of the compound in human serum after 6 hrs by RP-HPLC analysis; assay type: ADME, cell-free
[2] = Cytotoxicity against mouse HT-22 cells assessed as cell viability at 50 uM measured after 24 hrs by MTT assay; assay type: cell-based; details: read-out: Activity
[3] = Stability of the compound in human serum assessed as half life after 12 hrs by RP-HPLC analysis; assay type: ADME, cell-free
[4] = target: Peptidyl-prolyl cis-trans isomerase A (Homo sapiens, UniProt P62937); assay: Binding affinity to His6-tagged CypA (unknown origin) expressed in Escherichia coli BL21 (DE3) incubation at 1 hr by multimode plate reader
[5] = Stability of the compound in human serum after 2 hrs by RP-HPLC analysis; assay type: ADME, cell-free
[6] = Stability of the compound in human serum assessed as compound remaining after 12 hrs by RP-HPLC analysis; assay type: ADME, cell-free; details: read-out: Stability
HT-22 = assay: Neuroprotective activity against […]-induced toxicity in mouse HT-22 cells assessed as increase in survival at 50 uM preincubated for 24 hrs followed by […] and measured after 16 hrs by MTT assay; assay type: functional; details: time 40 hrs

CC[C@H](C)[C@H](NC(=O)[C@H](Cc1cnc[nH]1)NC(=O)[C@H](CC(=O)O)NC(=O)[C@@H](NC(=O)[C@H](CCC(=O)O)NC(=O)[C@@H](NC(=O)[C@H](CCCCN)NC(=O)[C@H](CCCNC(=N)N)NC(=O)CNC(=O)[C@H](CC(=O)O)NC(=O)[C@H](CCCCN)NC(=O)[C@H](CC(C)C)NC(=O)[C@H](CCCCN)NC(=O)[C@@H](NC(=O)[C@H](CC(C)C)NC(=O)[C@H](CC(C)C)NC(=O)[C@H](CCCCN)NC(=O)CNC(=O)[C@H](CO)NC(=O)[C@H](CO)NC(=O)[C@@H](NC(=O)CNC(=O)[C@@H](NC(=O)[C@H](CO)NC(=O)[C@@H](N)CCC(N)=O)C(C)C)C(C)C)[C@@H](C)CC)C(C)C)[C@@H](C)O)C(=O)O
Stability [1]: Unstable | viability at 24 h, 50 µM [2]: > 90% | half-life [3]: 4 h

CC[C@H](C)[C@@H]1NC(=O)[C@H](C)NC(=O)[C@@H](NC(C)=O)CSSC[C@@H](C(N)=O)NC(=O)[C@H](CCC(=O)O)NC(=O)[C@H](C(C)C)NC(=O)[C@H](CCCCN)NC(=O)[C@H](CCCNC(=N)N)NC(=O)CNC(=O)[C@H](CC(=O)O)NC(=O)[C@H](CCCCN)NC(=O)[C@H](CC(C)C)NC(=O)[C@H](CCCCN)NC1=O (Ac-CAIKLKDGRKVEC-NH2; disulfide 1-13)
Activity [4]: Active

CC[C@H](C)[C@@H]1NC(=O)[C@@H](NC(C)=O)CSSC[C@@H](C(N)=O)NC(=O)[C@H](C(C)C)NC(=O)[C@H](CCCCN)NC(=O)[C@H](CCCNC(=N)N)NC(=O)CNC(=O)[C@H](CC(=O)O)NC(=O)[C@H](CCCCN)NC(=O)[C@H](CC(C)C)NC(=O)[C@H](CCCCN)NC1=O (Ac-CIKLKDGRKVC-NH2; disulfide 1-11)
Stability [5]: Unstable | remaining at 12 h [6]: 75% | Activity (HT-22): 10% | Kd [4]: 2.4 µM | viability at 24 h, 50 µM [2]: > 90%

CC(=O)N[C@H]1CSSC[C@@H](C(N)=O)NC(=O)[C@H](CCC(=O)O)NC(=O)[C@H](C(C)C)NC(=O)[C@H](CCCCN)NC(=O)[C@H](CCCNC(=N)N)NC(=O)CNC(=O)[C@H](CC(=O)O)NC(=O)[C@H](CCCCN)NC(=O)[C@H](CC(C)C)NC(=O)[C@H](CCCCN)NC(=O)[C@H](C)NC(=O)[C@H](CC(C)C)NC1=O (Ac-CLAKLKDGRKVEC-NH2; disulfide 1-13)
Activity [4]: Active

CC[C@H](C)[C@@H]1NC(=O)[C@H](CC(C)C)NC(=O)[C@@H](NC(C)=O)CSSC[C@@H](C(N)=O)NC(=O)[C@H](CCC(=O)O)NC(=O)[C@H](C(C)C)NC(=O)[C@H](CCCCN)NC(=O)[C@H](CCCNC(=N)N)NC(=O)CNC(=O)[C@H](CC(=O)O)NC(=O)[C@H](CCCCN)NC(=O)[C@H](CC(C)C)NC(=O)[C@H](C)NC1=O (Ac-CLIALKDGRKVEC-NH2; disulfide 1-13)
Activity [4]: inactive

CC[C@H](C)[C@@H]1NC(=O)[C@H](CC(C)C)NC(=O)[C@@H](NC(C)=O)CSSC[C@@H](C(N)=O)NC(=O)[C@H](CCC(=O)O)NC(=O)[C@H](C(C)C)NC(=O)[C@H](CCCCN)NC(=O)[C@H](CCCNC(=N)N)NC(=O)CNC(=O)[C@H](CC(=O)O)NC(=O)[C@H](CCCCN)NC(=O)[C@H](C)NC(=O)[C@H](CCCCN)NC1=O (Ac-CLIKAKDGRKVEC-NH2; disulfide 1-13)
Activity [4]: Active

CC[C@H](C)[C@@H]1NC(=O)[C@H](CC(C)C)NC(=O)[C@@H](NC(C)=O)CSSC[C@@H](C(N)=O)NC(=O)[C@H](CCC(=O)O)NC(=O)[C@H](C(C)C)NC(=O)[C@H](CCCCN)NC(=O)[C@H](CCCNC(=N)N)NC(=O)CNC(=O)[C@H](CC(=O)O)NC(=O)[C@H](C)NC(=O)[C@H](CC(C)C)NC(=O)[C@H](CCCCN)NC1=O (Ac-CLIKLADGRKVEC-NH2; disulfide 1-13)
Activity [4]: inactive

CC[C@H](C)[C@@H]1NC(=O)[C@H](CC(C)C)NC(=O)[C@@H](NC(C)=O)CSSC[C@@H](C(N)=O)NC(=O)[C@H](CCC(=O)O)NC(=O)[C@H](C(C)C)NC(=O)[C@H](CCCCN)NC(=O)[C@H](C)NC(=O)CNC(=O)[C@H](CC(=O)O)NC(=O)[C@H](CCCCN)NC(=O)[C@H](CC(C)C)NC(=O)[C@H](CCCCN)NC1=O (Ac-CLIKLKDGAKVEC-NH2; disulfide 1-13)
Activity [4]: inactive

CC[C@H](C)[C@@H]1NC(=O)[C@H](CC(C)C)NC(=O)[C@@H](NC(C)=O)CSSC[C@@H](C(N)=O)NC(=O)[C@H](CCC(=O)O)NC(=O)[C@H](C(C)C)NC(=O)[C@H](C)NC(=O)[C@H](CCCNC(=N)N)NC(=O)CNC(=O)[C@H](CC(=O)O)NC(=O)[C@H](CCCCN)NC(=O)[C@H](CC(C)C)NC(=O)[C@H](CCCCN)NC1=O (Ac-CLIKLKDGRAVEC-NH2; disulfide 1-13)
Activity [4]: inactive

CC[C@H](C)[C@@H]1NC(=O)[C@H](CC(C)C)NC(=O)[C@@H](NC(C)=O)CSSC[C@@H](C(N)=O)NC(=O)[C@H](CCC(=O)O)NC(=O)[C@H](C)NC(=O)[C@H](CCCCN)NC(=O)[C@H](CCCNC(=N)N)NC(=O)CNC(=O)[C@H](CC(=O)O)NC(=O)[C@H](CCCCN)NC(=O)[C@H](CC(C)C)NC(=O)[C@H](CCCCN)NC1=O (Ac-CLIKLKDGRKAEC-NH2; disulfide 1-13)
Activity [4]: Active

CC[C@H](C)[C@H](NC(=O)[C@H](CC(C)C)NC(=O)[C@H](CS)NC(C)=O)C(=O)N[C@@H](CCCCN)C(=O)N[C@@H](CC(C)C)C(=O)N[C@@H](CCCCN)C(=O)N[C@@H](CC(=O)O)C(=O)NCC(=O)N[C@@H](CCCNC(=N)N)C(=O)N[C@@H](CCCCN)C(=O)N[C@H](C(=O)N[C@@H](CCC(=O)O)C(=O)N[C@@H](CS)C(N)=O)C(C)C (Ac-CLIKLKDGRKVEC-NH2)
Kd [4]: 30 µM

CC[C@H](C)[C@@H]1NC(=O)[C@H](CC(C)C)NC(=O)[C@@H](NC(C)=O)CSSC[C@@H](C(N)=O)NC(=O)[C@H](CCC(=O)O)NC(=O)[C@H](C(C)C)NC(=O)[C@H](CCCCN)NC(=O)[C@H](CCCNC(=N)N)NC(=O)CNC(=O)[C@H](CC(=O)O)NC(=O)[C@H](CCCCN)NC(=O)[C@H](CC(C)C)NC(=O)[C@H](CCCCN)NC1=O (Ac-CLIKLKDGRKVEC-NH2; disulfide 1-13)
Kd [4]: 3.2 µM
